In patent US10544113B2 (priority 2016, dated 2020):
Like-named read-outs stand apart in the source and are kept apart here.

Legend:
[1] = tested on: B6 mice; test: Tail-flick test; assay type: in vivo, mouse; design: key to Activity of tail-flick test: ++: 25 mg/kg (intravenous) or 50 nmol (intrathecal) active; +: 100 mg/kg (intravenous) active; conditions: mice; compound given intravenous or intrathecal
Method: In an exemplary in vivo method, a test compound and a MOR antagonist are injected into a mouse pain model (for example, intravenous but not limited), basal latencies are recorded before the treatment and test latencies are recorded at various specified times after the injection, and a time-response curve is recorded and AUC values are calculated to determine whether an analgesic effect is exerted on the mouse. The test compound is confirmed to be an antagonist-to-agonist allosteric modifier of the MOR upon observation of an analgesic effect.
Male wild-type (WT) B6 mice (25-30 g) were kept in a temperature-controlled animal room with a 12-h light/dark cycle. The protocol has been approved by the Institutional Animal Care and Use Committee of the National Health Research Institutes, Taiwan. Animal experiments were carried out in accordance with the Policies on the Use of Animals in Neuroscience Research and the ethical guidelines for investigations of experimental pain in conscious animals, International Association for the Study of Pain. Tail-Flick Analgesia Meter (Columbia Instruments) was used to measure the tail-flick latencies of mice. The cut-off time for each measurement was 10 s to avoid tissue damage. Basal latencies were recorded before treatment and test latencies were recorded 30, 60, 90, 120 and 180 min after an intravenous injection of drugs. […] ED50 values were determined by the up-and-down method reported in Crocker et al., Pharmacol Biochem Behav, 1984, 21, 133-136.
An in vivo study, i.e., tail-flick test, was performed to investigate whether AAMs could change innate character of μ-opioid receptor in the presence of naloxone. […] In mice injected with naloxone (10 mg/kg; s.c.), the ED50 value of compound 58 in inhibition of the tail-flick response was determined to be 23.1±7.1 nmole.

[2] = tested on: DOR; test: cAMP assay (adenylyl cyclase inhibition) in HEK-DOR cells; assay type: cell-based
Method: Human embryonic kidney 293 (HEK-293) cells constitutively expressing MOR (HEK-MOR) and DOR (HEK-DOR) (kindly provided by Dr. Ping-Yee Law, University of Minnesota, USA) were cultured in high-glucose Dulbecco's modified Eagle's medium (DMEM, GIBCO) supplemented with 400 μg/mL G418 (Sigma), 2 mM L-glutamine and P/S/F (100 units/mL penicillin, 100 μg/mL streptomycin, 10% fetal bovine serum). Chinese hamster ovary (CHO)-K1 cells, stably expressing hMOR and Gα15 (CHO-K1/MOR/Gα15), were cultured in F12 medium (GIBCO) supplemented with 10 μg/mL Hygromycin B (Invivogen), 20 μg/mL Zeocin (Invivogen) P/S/F (100 units/mL penicillin, 100 μg/mL streptomycin, 10% fetal bovine serum). The cultures were incubated at 37° C. in a humidified 5% CO2 incubator.
Briefly, 2000 HEK-MOR cells or HEK-DOR cells were plated in 10 μL/well of DMEM in 96-well solid bottom white plates and 10 μL/well compound in HBSS in the presence with 1 μM forskolin and 100 μM 3-isobutyl-1-methylxanthine (IBMX). After 30 minutes of incubation at room temperature, 10 μL/well of labeled d2-cAMP and 10 μL/well of anti-cAMP antibody (both diluted in lysis buffer) were added to each well. Two hours later, plates were measured using the FlexStationIII (Molecular Devices Corp.) with excitation at 330 nm and emissions of 620 nm and 665 nm.
To characterize of novel opioid receptor AAMs, the activity and selectivity of compound 58 were tested by inhibiting adenylyl cyclase activity (i.e., cAMP assay).
Opoid receptors inhibit adenylyl cyclase activity through Gi/o family of heterotrimeric G proteins. A cAMP-accumulation assay was performed to determine whether opioid receptor AAMs affect a G protein-dependent signaling pathway.

[3] = molecular target: mu-opioid receptor (MOR) (Homo sapiens (Human), UniProt P35372); test: cell-based; conditions: combined with a MOR antagonist; for AUC: AUC of [Ca2+]i fluorescence, CHO-K1/MOR/Gα15 cells
Chain of mu-opioid receptor (MOR) (P35372 whole entry): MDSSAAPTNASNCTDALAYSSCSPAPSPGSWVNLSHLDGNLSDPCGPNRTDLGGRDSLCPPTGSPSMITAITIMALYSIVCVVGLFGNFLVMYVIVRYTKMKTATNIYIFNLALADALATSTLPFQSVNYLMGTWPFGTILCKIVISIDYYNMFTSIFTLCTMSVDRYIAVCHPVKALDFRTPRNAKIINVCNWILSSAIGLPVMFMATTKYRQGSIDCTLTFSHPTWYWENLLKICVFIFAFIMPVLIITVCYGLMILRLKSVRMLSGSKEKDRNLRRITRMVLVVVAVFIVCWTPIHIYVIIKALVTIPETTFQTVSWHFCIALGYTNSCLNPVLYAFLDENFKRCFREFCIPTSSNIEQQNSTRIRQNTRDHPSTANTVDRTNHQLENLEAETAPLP

| Compound | EC50 ([3]; EC50, CHO-K1/MOR/Gα15 cells) [µM] | FLIPR Ca^2+ AUC [3] | EC50 ([3]; read-out: FLIPR Ca^2+ EC50) [µM] | further results |
| --- | --- | --- | --- | --- |
| N-Cyclobutyl-4-[2-(4-fluorophenyl)-4-oxo-1, 3-thiazolidin-3-yl]-3-methylbenzamide [Example 255] |  |  |  | Activity of tail-flick test [1]: + |
| [D-Pen(2),D-Pen(5)]-enkephalin [DPDPE] |  |  |  | cAMP-inhibition response ([2]; % of forskolin-stimulated (1 μM) cAMP accumulation): 60%; EC50 ([2]; agonist alone): 0.0005 µM |
| COCCS(=O)(=O)NC(=O)c1ccc(N2C(=O)CSC2c2ccc(F)cc2)c(C)c1 (stereo not drawn) [Example 593, 4-[2-(4-Fluorophenyl)-4-oxo-1,3-thiazolidin-3-yl]-N-[(2-methoxyethyl)sulfonyl]-3-methylbenzamide] | < 10 | 11543 | 2.21 | AUC [3]: more than 5000 |
| Cc1cc(C(=O)OCc2oc(=O)oc2C)ccc1N1C(=O)CSC1c1ccc(F)cc1 (stereo not drawn) [Example 311] | < 10 |  |  |  |
| Cc1cc(C(=O)NCCc2ccc(Cl)cc2)ccc1N1C(=O)CSC1c1ccc(F)cc1 (stereo not drawn) [Example 388] |  | 2951 | 2 |  |
| CCCNC(=O)c1ccc(N2C(=O)CSC2c2ccc(F)cc2)c(C)c1 (stereo not drawn) [Example 334] | < 10 | 9672 | 5.7 |  |
| Cc1cc(C(=O)N2CCC(N)C2)ccc1N1C(=O)CSC1c1ccc(F)cc1 (stereo not drawn) [Example 351] |  | 11205 | 10 |  |
| CCCOC(=O)c1ccc(N2C(=O)CSC2c2ccc(F)cc2)c(C)c1 (stereo not drawn) [Example 229] |  | 13237 | 9.7 |  |
| Cc1cc(C(=O)NCCCn2ccnc2)ccc1N1C(=O)CSC1c1ccc(F)cc1 (stereo not drawn) [Example 348] |  | 13641 | 8.8 |  |
| C=Cc1cc(C(=O)O)ccc1N1C(=O)CSC1c1ccc(F)cc1 (stereo not drawn) [Example 157] | < 10 | 5903 | 10 | AUC [3]: more than 5000 |
| Cc1c(N2C(=O)CSC2c2ccccc2F)c(=O)n(-c2ccccc2)n1C (stereo not drawn) [Example 406] |  | 9974 | 31.2 | AUC [3]: more than 5000 |
| Cc1cc(C#N)ccc1N1C(=O)CSC1c1ccc(F)cc1 (stereo not drawn) [Example 46] | < 10 |  |  |  |
| Cc1cc(C(=O)OC2COC(C)(C)OC2)ccc1N1C(=O)CSC1c1ccc(F)cc1 (stereo not drawn) [Example 277] | < 10 | 14634 | 6.1 |  |
| CCOCCOC(=O)c1ccc(N2C(=O)CSC2c2ccc(F)cc2)c(C)c1 (stereo not drawn) [Example 281] |  | 9792 | 4.5 |  |
| Cc1cc(C(=O)NC2CC2)ccc1N1C(=O)CSC1c1ccc(F)cc1 (stereo not drawn) [Example 336] |  | 11347 | 11 |  |
| Cc1cc(C(=O)NS(=O)(=O)C2CCCCC2)ccc1N1C(=O)CSC1c1ccc(F)cc1 (stereo not drawn) [Example 171] | < 10 | 10272 | 3.7 | AUC [3]: more than 5000 |
| Cc1cc(C(=O)NCCc2ccc(F)cc2)ccc1N1C(=O)CSC1c1ccc(F)cc1 (stereo not drawn) [Example 387] |  | 5770 | 4 |  |
| Cc1c(N2C(=O)CSC2c2ccccc2)c(=O)n(-c2ccccc2)n1C (stereo not drawn) [Example 408] |  | 9281 | 12.7 | AUC [3]: more than 5000 |
| Cc1cccnc1N1C(=O)CSC1c1ccc(F)cc1 (stereo not drawn) [Example 629, 2-(4-Fluorophenyl)-3-(3-methylpyridin-2-yl)-1,3-thiazolidin-4-one] |  | 4804 | 10 |  |
| CCOC(=O)OC(C)OC(=O)c1ccc(N2C(=O)CSC2c2ccc(F)cc2)c(C)c1 (stereo not drawn) [Example 313, 3-(1,5-Dimethyl-3-oxo-2-phenyl-2,3-dihydro-1H-pyrazol-4-yl)-2-(4-(methylthi)phenyl)thiazolidin-4-one] | < 10 |  |  |  |
| Cc1cc(C(=O)NS(=O)(=O)c2c(C)noc2C)ccc1N1C(=O)CSC1c1ccc(F)cc1 (stereo not drawn) [Example 213] | < 10 | 9005 | 0.9 | AUC [3]: more than 5000 |
| Cc1cc(C(=O)NS(=O)(=O)c2cccnc2)ccc1N1C(=O)CSC1c1ccc(F)cc1 (stereo not drawn) [Example 211] | < 10 | 8779 | 0.3 | AUC [3]: more than 5000 |
| Cc1cc(C(=O)OC2CCN(C)CC2)ccc1N1C(=O)CSC1c1ccc(F)cc1 (stereo not drawn) [Example 301] |  | 9593 | 0.9 |  |
| COC(=O)c1ccc(N2C(=O)CSC2c2ccc(F)cc2)c(C)c1 (stereo not drawn) [Example 59] |  | 11534 | 2.6 |  |
| CCSCCOC(=O)c1ccc(N2C(=O)CSC2c2ccc(F)cc2)c(C)c1 (stereo not drawn) [Example 271] |  | 11997 | 14 |  |
